Assay results reported in US6288070A, “Triazolopurine derivatives, medicinal composition containing the derivatives, adenosine A3 receptor compatibilizing agent, and asthmatic remedy” (Otsuka Pharmaceutical Factory, Inc., priority 1998, dated 2001).
Read-outs that look alike come from different tables or passages of the source.

Legend:
adenosine A1 receptor = biological target: T1, adenosine A1 receptor (Rattus norvegicus, UniProt P25099); experiment: biochemical
T1 sequence (P25099 1-326): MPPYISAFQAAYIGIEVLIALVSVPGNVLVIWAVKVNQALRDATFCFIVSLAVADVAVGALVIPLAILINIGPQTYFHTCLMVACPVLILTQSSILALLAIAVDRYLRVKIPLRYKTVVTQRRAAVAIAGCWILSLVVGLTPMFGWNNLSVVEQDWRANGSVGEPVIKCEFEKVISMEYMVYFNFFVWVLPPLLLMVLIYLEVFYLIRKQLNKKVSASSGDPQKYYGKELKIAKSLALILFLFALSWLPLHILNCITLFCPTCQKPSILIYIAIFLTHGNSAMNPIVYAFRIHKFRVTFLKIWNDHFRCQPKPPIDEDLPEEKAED

adenosine A3 receptor = biological target: T2, adenosine A3 receptor (Homo sapiens, UniProt P0DMS8); experiment: biochemical; conditions: [125I]AB-MECA, membrane of HEK-293 cells transformed with A3 receptor plasmid, read-out: Receptor binding capacity (IC50) Adenosine A3
T2 construct: expressed in transfected cells; host or cells: HEK-293
T2 sequence (P0DMS8 1-318): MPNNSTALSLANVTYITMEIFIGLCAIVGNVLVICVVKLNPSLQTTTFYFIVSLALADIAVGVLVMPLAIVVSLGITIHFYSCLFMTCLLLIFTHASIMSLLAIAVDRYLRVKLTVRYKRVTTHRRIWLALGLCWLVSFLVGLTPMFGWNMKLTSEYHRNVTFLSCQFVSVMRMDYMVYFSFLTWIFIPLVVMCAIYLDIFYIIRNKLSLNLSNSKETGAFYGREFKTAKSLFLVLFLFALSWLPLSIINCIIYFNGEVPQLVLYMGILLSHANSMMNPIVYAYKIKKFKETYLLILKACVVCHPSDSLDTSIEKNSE

adenosine A2 receptor = biological target: T3, adenosine A2 receptor (Rattus norvegicus, UniProt P30543); experiment: Adenosine A2 receptor binding capacity
T3 construct: from tissue
T3 sequence (P30543 whole entry): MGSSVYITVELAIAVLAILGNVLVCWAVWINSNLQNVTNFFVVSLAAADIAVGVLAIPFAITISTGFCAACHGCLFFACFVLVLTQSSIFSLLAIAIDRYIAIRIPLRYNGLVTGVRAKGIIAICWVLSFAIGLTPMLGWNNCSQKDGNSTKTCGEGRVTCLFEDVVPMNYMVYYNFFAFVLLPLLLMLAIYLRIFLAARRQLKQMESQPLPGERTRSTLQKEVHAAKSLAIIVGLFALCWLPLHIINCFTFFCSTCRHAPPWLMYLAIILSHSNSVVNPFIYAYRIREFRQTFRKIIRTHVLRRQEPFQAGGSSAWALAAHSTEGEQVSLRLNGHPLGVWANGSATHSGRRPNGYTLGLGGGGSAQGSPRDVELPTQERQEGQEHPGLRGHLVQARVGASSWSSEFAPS

[1] = adenosine A2 receptor, read-out: Receptor binding capacity (IC50) Adenosine A2

SMILES | IC50 (adenosine A1 receptor) | IC50 (adenosine A3 receptor) | IC50 (adenosine A2 receptor; [1]) | IC50 (adenosine A2 receptor)
Cc1nc2[nH]cnc2c2nc(-c3ccccc3)nn12 [Example 1, 5-methyl-8-phenyl-1H-1,2,4-triazolo[5,1-i]purine] | 101 nM | – | – | –
COc1cc(-c2nc3c4[nH]cnc4nc(C)n3n2)cc(OC)c1OC [Example 2] | – | 96 nM | – | –
Cc1nc2nc[nH]c2c2nc(-c3cccnc3)nn12 [Example 3] | 2600 nM | 95 nM | 3000 nM | –
CCCCc1nc2[nH]cnc2c2nc(-c3ccc(C)cc3)nn12 [Example 5] | – | – | 184 nM | –
CCCCc1nc2nc[nH]c2c2nc(-c3ccccc3O)nn12 [Example 6] | 178 nM | < 1 nM | 247 nM | –
CCCCc1nc2[nH]cnc2c2nc(-c3cc(OC)c(OC)c(OC)c3)nn12 [Example 12, 5-n-butyl-8-(3,4,5-trimethoxyphenyl)-1H-1,2,4-triazolo[5,1-i]purine] | 1000 nM | – | – | –
CCCCc1nc2[nH]cnc2c2nc(-c3cccnc3)nn12 [Example 13] | 228 nM | – | – | –
CCCCc1nc2[nH]cnc2c2nc(-c3ccco3)nn12 [Example 15] | 42 nM | – | – | –
CCCCc1nc2nc[nH]c2c2nc(/C=C/c3ccccc3)nn12 [Example 17] | 1300 nM | 1.1 nM | 723 nM | –
c1ccc(-c2nc3c4nc[nH]c4nc(-c4ccccc4)n3n2)cc1 [Example 18] | 6.4 nM | – | – | –
COc1cc(-c2nc3c4[nH]cnc4nc(-c4ccccc4)n3n2)cc(OC)c1OC [Example 19] | 93 nM | 1.5 nM | 546 nM | –
c1ccc(-c2nc3nc[nH]c3c3nc(-c4cccnc4)nn23)cc1 [Example 20] | 21 nM | 7.4 nM | 31 nM | –
CCCc1nc2nc[nH]c2c2nc(-c3ccccc3)nn12 [Example 23] | – | – | 115 nM | –
CCCCCc1nc2nc[nH]c2c2nc(-c3ccccc3)nn12 [Example 34, 5-pentyl-8-phenyl-1H-1,2,4-triazolo[5,1-i]purine] | – | – | 205 nM | –
Cc1cccc(-c2nc3nc[nH]c3c3nc(-c4ccccc4)nn23)c1 [Example 35] | – | < 1 nM | 111 nM | –
CCCCCCCc1nc2nc[nH]c2c2nc(-c3ccccc3)nn12 [Example 37] | – | 9 nM | 3700 nM | –
CCCCc1nc2[nH]cnc2c2nc(-c3ccc(N(C)C)cc3)nn12 [Example 42] | – | – | > 10000 nM | –

SMILES | IC50 (adenosine A1 receptor) | IC50 (adenosine A3 receptor) | IC50 (adenosine A2 receptor; [1]) | IC50 (adenosine A2 receptor)
CCCCc1nc2[nH]cnc2c2nc(-c3ccc(OCCC)cc3)nn12 [Example 45] | – | – | > 10000 nM | –
CCCCc1nc2nc[nH]c2c2nc(-c3ccc(OCc4ccccc4)cc3)nn12 [Example 49] | – | 1.7 nM | > 10000 nM | –
CCCCc1nc2nc[nH]c2c2nc(-c3ccc(-c4ccccc4)cc3)nn12 [Example 50] | – | – | > 10000 nM | –
CCCCc1nc2nc[nH]c2c2nc(-c3ccc(OC)c(OC)c3)nn12 [Example 51] | – | 1.6 nM | > 10000 nM | –
CCCCc1nc2nc[nH]c2c2nc(-c3ccc(N(CC)CC)cc3)nn12 [Example 54] | – | 7.8 nM | > 10000 nM | –
CCCCc1nc2nc[nH]c2c2nc(-c3ccc(OC(F)(F)F)cc3)nn12 [Example 58] | – | 5.8 nM | > 10000 nM | –
CCCCc1nc2[nH]cnc2c2nc(-c3ccc(C(F)(F)F)cc3)nn12 [Example 59] | – | – | > 10000 nM | –
CCCCc1nc2nc[nH]c2c2nc(-c3ccc(N(Cc4ccccc4)Cc4ccccc4)cc3)nn12 [Example 60] | – | 15 nM | > 10000 nM | –
CCCCc1nc2nc[nH]c2c2nc(-c3ccc(NCc4ccccc4)cc3)nn12 [Example 61] | – | < 1 nM | 1800 nM | –
CCCCc1nc2nc[nH]c2c2nc(-c3ccc(Oc4ccccc4)cc3)nn12 [Example 62] | – | 6.6 nM | > 10000 nM | –
CCCCc1nc2nc[nH]c2c2nc(-c3ccc(NC)cc3)nn12 [Example 63] | – | 1 nM | 2400 nM | –
CCCCc1nc2nc[nH]c2c2nc(-c3ccc4ccccc4c3)nn12 [Example 64] | – | < 1 nM | 716 nM | –
CCCCc1nc2nc[nH]c2c2nc(-c3ccc(CP(=O)(OCC)OCC)cc3)nn12 [Example 65] | – | 3.7 nM | – | > 10000 nM
CCCCc1nc2nc[nH]c2c2nc(-c3ccc(SC)cc3)nn12 [Example 66] | – | – | > 10000 nM | –
CCCCc1nc2nc[nH]c2c2nc(-c3ccc(CC)cc3)nn12 [Example 67] | – | 5.4 nM | 1800 nM | –
CCCCc1nc2nc[nH]c2c2nc(-c3ccc(C(C)C)cc3)nn12 [Example 68] | – | 5.1 nM | > 10000 nM | –
CCCCc1nc2[nH]cnc2c2nc(-c3ccc(C(C)(C)C)cc3)nn12 [Example 69] | – | – | > 10000 nM | –
